# From PMC9667534, “Insertion of Nanoluc into the Extracellular Loops as a Complementary Method To Establish BRET-Based Binding Assays for GPCRs” (ACS Pharmacology & Translational Science, 2022)
# “And” between values parts separate entries of the source, which are not always exact repeats. Equal values may be shown once. Read-outs that look alike come from different tables or passages of the source.
# Tests used:
# Y1R [1] = target: Y1R; parameters: method as in ref 24,25,27,30-38 (per cell); details: different expression systems, sodium-containing or sodium-free buffers, ref 24,25,27,30-38 (per cell); cited from earlier work
# Nluc-Y1R(Y192) [2] = target: T1, Nluc-Y1R(Y192) (Homo sapiens, UniProt P25929); test: BRET competition binding with fluorescent ligand 1; details: competition with 1 (c = 0.5 nM, Kd = 0.24 nM), intact HEK293T cells, mean ± SEM
# T1 sequence (P25929 1-384): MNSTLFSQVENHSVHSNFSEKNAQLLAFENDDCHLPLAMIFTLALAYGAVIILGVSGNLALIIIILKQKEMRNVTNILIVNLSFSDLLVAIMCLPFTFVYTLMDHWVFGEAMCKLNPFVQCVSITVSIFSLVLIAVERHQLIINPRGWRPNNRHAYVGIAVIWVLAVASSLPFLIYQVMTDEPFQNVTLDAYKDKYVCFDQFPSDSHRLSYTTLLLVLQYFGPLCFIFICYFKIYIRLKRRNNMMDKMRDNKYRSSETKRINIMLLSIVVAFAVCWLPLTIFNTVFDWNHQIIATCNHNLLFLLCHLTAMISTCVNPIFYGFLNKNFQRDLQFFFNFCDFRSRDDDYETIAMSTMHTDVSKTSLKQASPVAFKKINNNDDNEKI
# Protocol: (§1) BRET binding experiments were essentially performed as described[18] with the following minor modifications: 1 day prior to the experiment, HEK293T cells stably expressing the respective Nluc-receptor fusion construct were detached from the cell culture dish by trypsinization, centrifuged (500g, 5 min), and resuspended in L-15 with 5% FCS and 10 mM HEPES (pH 7.4). […] Subsequently, 10 μL of assay buffer containing the investigated fluorescent ligand was added to all wells. After an incubation period of 60 min at 27 °C, 10 μL of the Nluc substrate furimazine (prediluted 1:1000 before use) was added and after an equilibration time of 5 min inside the plate reader (prewarmed to 27 °C), the measurement was started.
# (§2) A positive control containing only fluorescent ligand and no competitor (100% value), as well as a negative control (buffer, 0% value), was included in every experiment.
# (§3) For competition binding experiments, the data were normalized to the BRET ratio obtained for the negative control (buffer, 0% value) and the BRET ratio obtained for wells containing fluorescent ligand, but no competitor (100% value). […] The obtained pIC50 values were subsequently transformed into pKi values by means of the Cheng–Prusoff equation (logarithmic form),[80] for which means and SEMs were calculated.
# Nluc-Y1R(Q291) [3] = target: T2, Nluc-Y1R(Q291) (Homo sapiens, UniProt P25929); test: BRET competition binding with fluorescent ligand 1; details: competition with 1 (c = 0.5 nM, Kd = 0.29 nM), HEK293T cells; mean ± SEM
# T2 sequence (P25929 1-384): T1 sequence (P25929 1-384)
# Protocol: as §1, §2, §3
# Nluc-M1R(G176) [4] = target: T3, Nluc-M1R(G176) (Homo sapiens, UniProt P11229); test: biochemical; assay type: binding
# T3 sequence (P11229 1-460): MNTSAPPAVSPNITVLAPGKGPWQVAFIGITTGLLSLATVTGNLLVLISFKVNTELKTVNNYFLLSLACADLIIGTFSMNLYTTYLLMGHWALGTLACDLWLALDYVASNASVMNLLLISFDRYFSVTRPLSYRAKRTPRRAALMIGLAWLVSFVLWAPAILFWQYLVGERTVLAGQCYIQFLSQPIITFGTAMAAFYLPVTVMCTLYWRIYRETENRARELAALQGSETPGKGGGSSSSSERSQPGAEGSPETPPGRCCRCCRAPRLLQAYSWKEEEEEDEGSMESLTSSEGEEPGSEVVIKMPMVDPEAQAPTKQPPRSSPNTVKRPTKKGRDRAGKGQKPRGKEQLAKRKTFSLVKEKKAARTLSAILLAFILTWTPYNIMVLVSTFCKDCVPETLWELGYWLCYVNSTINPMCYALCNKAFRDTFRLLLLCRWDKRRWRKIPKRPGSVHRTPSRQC
# Protocol: BRET binding experiments were essentially performed as described[18] with the following minor modifications: 1 day prior to the experiment, HEK293T cells stably expressing the respective Nluc-receptor fusion construct were detached from the cell culture dish by trypsinization, centrifuged (500g, 5 min), and resuspended in L-15 with 5% FCS and 10 mM HEPES (pH 7.4). […] Subsequently, 10 μL of assay buffer containing the investigated fluorescent ligand was added to all wells.
# as §2, §3
# M1R = details: cited from earlier work
# AT1R = target: AT1R; parameters: method as in ref 41,44,46-49 (per cell); details: different expression systems, ref 41,44,46-49 (per cell); cited from earlier work
# Nluc-AT1R(S186) = target: T4, Nluc-AT1R(S186) (Homo sapiens, UniProt P30556); test: BRET competition binding with fluorescent ligand 3
# T4 sequence (P30556 1-359): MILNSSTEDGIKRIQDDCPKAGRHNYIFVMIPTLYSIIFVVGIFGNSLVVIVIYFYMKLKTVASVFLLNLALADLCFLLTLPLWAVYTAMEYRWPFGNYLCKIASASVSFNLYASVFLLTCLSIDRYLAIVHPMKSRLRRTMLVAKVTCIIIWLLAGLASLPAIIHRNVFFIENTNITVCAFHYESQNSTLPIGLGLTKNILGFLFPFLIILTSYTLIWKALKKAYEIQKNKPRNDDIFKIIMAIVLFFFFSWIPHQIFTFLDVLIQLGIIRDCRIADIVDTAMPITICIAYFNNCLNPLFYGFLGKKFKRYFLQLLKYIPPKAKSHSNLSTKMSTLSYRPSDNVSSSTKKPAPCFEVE
# Protocol: as §1
# A positive control containing only fluorescent ligand and no competitor (100% value), as well as a negative control (buffer, 0% value), was included in every experiment. […]
# as §3
# wild-type Y1R = target: wild-type Y1R; parameters: method as in PMID 35263541; details: cited from earlier work
# Nluc-Y1R(Y192) [5] = target: T1, Nluc-Y1R(Y192); test: Kinetic BRET binding (association and dissociation); details: 1 c = 0.5 nM
# Nluc-Y1R(Q291) [6] = target: T2, Nluc-Y1R(Q291); test: BRET saturation binding at intact HEK293T cells
# Protocol: as §1
# (§4) For BRET experiments, the “raw BRET ratio” was calculated by dividing the emission detected through the 610 LP filter (acceptor) by the emission detected through the 460 BP filter (donor). A baseline correction was performed for all values by subtracting the BRET ratio of a buffer control, yielding “corrected BRET ratios”. […] The obtained Kd values were transformed into pKd values, for which means and SEMs were calculated.
# Nluc-Y1R(Y192) [7] = target: T1, Nluc-Y1R(Y192); test: BRET saturation binding at intact HEK293T cells
# Protocol: as §1, §4
# Nluc-Y1R(Nterm) = target: T5, Nluc-Y1R(Nterm) (Homo sapiens, UniProt P25929); test: BRET saturation binding at intact HEK293T cells
# T5 construct: expressed in transfected cells; host or cells: HEK293T, stably transfected (pcDNA3.1)
# T5 sequence (P25929 1-384): T1 sequence (P25929 1-384)
# Protocol: as §1, §4
# Nluc-Y1R(Δ1–31) = target: T6, Nluc-Y1R(Δ1–31) (Homo sapiens, UniProt P25929); test: BRET saturation binding at intact HEK293T cells; details: mean ± SEM, read-out: pKd (BRET) (converted)
# T6 construct: fused Nluc to Asp32 of the Y1R via a short linker; expressed in transfected cells; host or cells: HEK293T, stably transfected (pcDNA3.1)
# T6 sequence (P25929 32-384): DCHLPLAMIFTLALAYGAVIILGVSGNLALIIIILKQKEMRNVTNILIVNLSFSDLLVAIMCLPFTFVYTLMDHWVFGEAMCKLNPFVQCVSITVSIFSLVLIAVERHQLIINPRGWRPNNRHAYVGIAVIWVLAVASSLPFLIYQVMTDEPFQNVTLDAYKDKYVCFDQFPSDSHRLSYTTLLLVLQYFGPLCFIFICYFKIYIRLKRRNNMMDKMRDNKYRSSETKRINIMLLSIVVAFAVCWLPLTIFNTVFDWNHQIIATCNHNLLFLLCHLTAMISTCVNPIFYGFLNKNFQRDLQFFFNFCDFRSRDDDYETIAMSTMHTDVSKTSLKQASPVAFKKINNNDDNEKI
# Protocol: as §1, §4
# Nluc-M1R(G176) [8] = target: T3, Nluc-M1R(G176); test: BRET saturation binding at intact HEK293T cells
# Protocol: as §1, §4
# Nluc-M1R(G176) [9] = target: T3, Nluc-M1R(G176); test: Kinetic BRET binding (association and dissociation)
# Nluc-M1R(Nterm) = target: T7, Nluc-M1R(Nterm) (Homo sapiens, UniProt P11229); test: BRET saturation binding at intact HEK293T cells; details: mean ± SEM, read-out: pKd (BRET) (converted)
# T7 construct: expressed in transfected cells; host or cells: HEK293T, stably transfected (pcDNA3.1)
# T7 sequence (P11229 1-460): T3 sequence (P11229 1-460)
# Protocol: as §1, §4
# NTS1R = target: NTS1R; parameters: method as in ref 42,44,50-53 (per cell); details: different expression systems, ref 42,44,50-53 (per cell); cited from earlier work
# Nluc-NTS1R(T227) = test: BRET competition binding with fluorescent ligand 2; parameters: species or system human; details: competition with 2 (c = 5 nM, Kd = 4.82 nM), intact HEK293T cells, mean ± SEM
# Protocol: as §1, §2, §3
# Nluc-NTS1R(T227) (human) [10] = target: Nluc-NTS1R(T227) (human) (UniProt P30989); test: FRET or BRET; BRET saturation binding of the fluorescent ligand at intact HEK293T cells stably expressing the Nluc-receptor construct; 60 min, 27 °C; L-15, 10 mM HEPES pH 7.4, 2% BSA; nonspecific binding with 100-fold excess of SR142948 or candesartan
# Nluc-NTS1R(T227) (human) [11] = target: Nluc-NTS1R(T227) (human) (UniProt P30989); test: FRET or BRET; kinetic BRET binding (association then dissociation) at intact HEK293T cells, 27 °C; fluorescent ligand 10 nM; dissociation started with SR142948 or candesartan (2.5 μM)
# Y1R [12] = target: Y1R; parameters: method as in PMID 35263541; details: 1 as the fluorescent probe; cited from earlier work
# [13] = intact HEK293T cells, mean ± SEM
# [14] = intact HEK293T cells, mean ± SEM, read-out: pKd (BRET) (converted)
# [15] = value used for Cheng–Prusoff, read-out: Kd
# Chain of Nluc-NTS1R(T227) (human) (P30989 whole entry): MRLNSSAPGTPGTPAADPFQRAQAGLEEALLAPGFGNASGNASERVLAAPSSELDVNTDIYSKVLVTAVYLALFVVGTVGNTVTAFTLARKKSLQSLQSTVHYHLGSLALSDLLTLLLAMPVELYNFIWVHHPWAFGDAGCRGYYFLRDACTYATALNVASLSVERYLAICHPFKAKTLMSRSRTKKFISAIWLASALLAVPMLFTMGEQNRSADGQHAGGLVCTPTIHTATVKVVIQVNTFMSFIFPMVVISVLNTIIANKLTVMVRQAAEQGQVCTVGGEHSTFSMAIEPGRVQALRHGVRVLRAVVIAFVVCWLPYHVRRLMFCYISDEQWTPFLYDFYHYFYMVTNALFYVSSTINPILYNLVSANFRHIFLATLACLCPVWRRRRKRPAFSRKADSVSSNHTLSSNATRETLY
# Chain of Nluc-NTS1R(T227) (P30989 1-227 limits assumed): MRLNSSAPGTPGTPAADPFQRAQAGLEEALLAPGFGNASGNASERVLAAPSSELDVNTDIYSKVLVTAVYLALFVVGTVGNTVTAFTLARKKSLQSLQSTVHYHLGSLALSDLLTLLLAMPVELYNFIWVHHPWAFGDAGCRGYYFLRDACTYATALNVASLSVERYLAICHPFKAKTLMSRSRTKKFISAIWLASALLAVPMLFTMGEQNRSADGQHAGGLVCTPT
# Chain of Nluc-NTS1R(T227) (P30989 228-418 limits assumed): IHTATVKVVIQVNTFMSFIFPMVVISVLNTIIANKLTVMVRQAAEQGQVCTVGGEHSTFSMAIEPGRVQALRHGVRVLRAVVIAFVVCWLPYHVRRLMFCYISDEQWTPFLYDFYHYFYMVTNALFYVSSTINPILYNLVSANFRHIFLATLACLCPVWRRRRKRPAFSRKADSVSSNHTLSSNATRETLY
molecule,measurement,setting,value
NC(=O)NCc1ccc(CNC(=O)[C@@H](CCCN=C(N)N)NC(=O)C(c2ccccc2)c2ccccc2)cc1 [BIBO3304],reference values (literature),Y1R [1],"8.76–9.60[27],[30],[31]"
NC(N)=NCCC[C@@H](NC(=O)C(c1ccccc1)c1ccccc1)C(=O)NCc1ccc(O)cc1 [BIBP3226],reference values (literature),Y1R [1],"8.14–9.00[25],[27],[30],[33],[34]"
CC(C)c1ccccc1S(=O)(=O)c1cc(N)c2ncccc2c1[N+](=O)[O-] [PD160170],reference values (literature),Y1R [1],7.30 and 7.32
same,pKi (BRET),Nluc-Y1R(Y192) [2],7.45 ± 0.05
CCC(=O)NCCNC(=O)N=C(N)NCCC[C@@H](NC(=O)C(c1ccccc1)c1ccccc1)C(=O)NCc1ccc(O)cc1 [UR-MK299],reference values (literature),Y1R [1],10.11[25]
same,"pKi (BRET, Nluc-Y1R(Q291))",Nluc-Y1R(Q291) [3],10.06 ± 0.07
same,pKi (BRET),Nluc-Y1R(Y192) [2],10.20 ± 0.06
"C=CC[N@@+]12CC[C@@]34c5ccccc5N5/C=C6/[C@H]7C[C@H]8[C@@]9(CC[N@@+]8(CC=C)C/C7=C/CO)c7ccccc7N(/C=C(/[C@@H](C[C@@H]31)/C(=C\CO)C2)[C@H]54)[C@@H]69 [alcuronium, Alcuronium]",displacement of fluorescent ligand 4,Nluc-M1R(G176) [4]; Nluc-M1R(G176),displace the dualsteric ligand 4 completely
same,reference values (literature),M1R,"5.01,[57] 5.25[55]"
"CCOc1nc2cccc(C(=O)O)c2n1Cc1ccc(-c2ccccc2-c2nnn[nH]2)cc1 [candesartan, Candesartan]",reference values (literature),AT1R,"8.46–10.28[41],[44],[46]−[48]"
same,Ki,Nluc-AT1R(S186),1.51 nM
CCC(=O)NCCNC(=O)N=C(N)NCCC[C@@H](NC(=O)[C@@H](c1ccccc1)c1cccc(OCCCC[n+]2c(C)cc(/C=C/C=C/c3ccc(N(C)C)cc3)cc2C)c1)C(=O)NCc1ccc(O)cc1 [compound 1],pKi (radioligand competition binding),wild-type Y1R,9.95
same,time of association,Nluc-Y1R(Y192) [5],≤ 60 min
same,koff,Nluc-Y1R(Y192) [5]; [13],6.67e-05 s⁻¹
same,kon,Nluc-Y1R(Y192) [5]; [13],2.38e+06 M⁻¹ s⁻¹
same,fraction still bound after initiation of dissociation,"Nluc-Y1R(Y192) [5]; after 4 h, dissociation by BIBO3304",≈ 40%
same,Kd,"Nluc-Y1R(Y192) [5]; kinetically derived, mean ± SEM, read-out: pKd kinetic (converted)",0.024 nM
same,Kd,Nluc-Y1R(Q291) [6]; [14],0.288 nM
same,Kd,Nluc-Y1R(Q291) [6]; [15],0.29 nM
same,Kd,Nluc-Y1R(Y192) [7]; [14],0.24 nM
same,Kd,Nluc-Y1R(Y192) [7]; [15],0.24 nM
same,specific signal in BRET saturation binding,Nluc-Y1R(Nterm),no specific signal was detectable
same,Kd,Nluc-Y1R(Δ1–31),2.88 nM
Cc1cc(/C=C/C=C/c2ccc(N(C)C)cc2)cc(C)[n+]1CCNC(=O)CCc1cn(CCCCC2CCN(CC(=O)N3c4ccccc4NC(=O)c4ccccc43)CC2)cn1 [compound 4],Kd,Nluc-M1R(G176) [8]; [14],2.24 nM
same,Kd,Nluc-M1R(G176) [8]; [15],2.26 nM
same,koff,Nluc-M1R(G176) [9],0.00297 s⁻¹
same,kon,Nluc-M1R(G176) [9],367000 M⁻¹ s⁻¹
same,Kd,"Nluc-M1R(G176) [9]; kinetically derived, Nluc-M1R(G176), 4 c = 5 nM, mean ± SEM, read-out: pKd kinetic (converted)",9.12 nM
same,Kd,Nluc-M1R(Nterm),6.03 nM
C[N+](C)(C)CC#CCOC1=NOCC1 [iperoxo],pKi (BRET),Nluc-M1R(G176) [4],7.00 ± 0.07
same,reference values (literature),M1R,6.46[56]
CCCCc1nc(Cl)c(CO)n1Cc1ccc(-c2ccccc2-c2nn[nH]n2)cc1 [losartan],reference values (literature),AT1R,"7.23–8.00[41],[44],[46],[48],[49]"
O=C1CCCN1CC#CCN1CCCC1 [oxotremorine],Ki,Nluc-M1R(G176) [4],1000 nM
same,reference values (literature),M1R,"5.48–5.86[55],[57],[59]"
BMS193885,reference values (literature),Y1R [1],"7.66–8.48[27],[35],[36]"
same,pKi (BRET),Nluc-Y1R(Y192) [2],8.23 ± 0.01
Neurotensin(8–13) [NT(8–13)],reference values (literature),NTS1R,"8.27–9.85[42],[44],[50]−[52]"
SR142948,pKi (BRET),Nluc-NTS1R(T227),7.93 ± 0.12
same,reference values (literature),NTS1R,"8.05–8.99[42],[44],[50],[53]"
UR-AP178 (peptide),pKd,Nluc-NTS1R(T227) (human) [10],8.32
same,koff,Nluc-NTS1R(T227) (human) [11],0.0138 s⁻¹
same,kon,Nluc-NTS1R(T227) (human) [11],2e+06 M⁻¹ s⁻¹
same,pKd kinetic,Nluc-NTS1R(T227) (human) [11],8.16
angiotensin II,reference values (literature),AT1R,"7.61–9.62[44],[46]−[49]"
same,time until pIC50 value stabilized,Nluc-AT1R(S186); kinetic BRET competition binding with 3 at Nluc-AT1R(S186),≤ 45 min
porcine neuropeptide Y [pNPY],reference values (literature),Y1R [1],"7.58–9.75[24],[25],[27],[30]−[32]"
same,pKi (flow cytometry-based competition binding),Y1R [12],7.58
